Experimental data from patent US10781183B2, “Small molecule inducers of reactive oxygen species and inhibitors of mitochondrial activity” (The Regents of the University of Michigan, priority 2016, dated 2020).
Where a name gives a salt, the structure may show the parent alone. Read-outs that look alike come from different tables or passages of the source.

How the values were obtained:
BxPC-3 cells = assay: MTT cytotoxicity assay, BxPC-3; assay type: cell-based; details: Homo sapiens, three independent experiments
Protocol: (§1) MiaPaCa-2, Panc-1 and BxPC-3 pancreatic cancer cell lines were obtained from the ATCC. Normal pancreatic cells HPDE and HPNE were kindly provided (Translational Oncology Program, University of […], Ann Arbor, Mich.). Gemcitabine resistant cell line MiaPaCa-2-GR (gemcitabine resistant) was kindly provided (Department of Pathology, Wayne State University, Detroit, Mich.). All cell lines were cultured as monolayer and maintained in RPMI1640 supplemented with 10% fetal bovine serum (FBS) in a humidified atmosphere with 5% CO2 at 37° C. MiaPaCa-2-GR culture was supplemented with 200 nM gemcitabine.
(§2) Cytotoxicity of compounds was evaluated with 3-(4,5-dimethylthiazol-2-yl)-2,5-diphenyltetrazolium bromide (MTT) assay. Cells were placed in 96-well plate at 3000-8000 cells/well. After overnight attachment, compounds were added to the wells at sequential dilutions (30 nM-10 μM for most cell lines). After 72 h treatment, MTT was added into the media to a final concentration of 300 μg/mL. Cells were incubated for 3 h at 37° C., and the insoluble formazan converted by viable cells were dissolved in 150 μL of DMSO. Absorbance at 570 nm was read by microplate reader (Molecular devices, Sunnyvale, Calif.), and inhibition of cell proliferation was calculated using the following formula: Inhibition of cell proliferation (%)=(1−ODtreatment/ODcontrol)×100%

pancreatic cancer = details: cited from earlier work
Panc-1 cells = assay: MTT cytotoxicity assay, Panc-1; assay type: cell-based; details: Homo sapiens, three independent experiments
Protocol: as §1, §2

MiaPaCa-2 xenograft = MiaPaCa-2 xenograft studies; assay type: in vivo, NOD/SCID mice; details: QD325 5 mg/kg five times a week; gemcitabine 15 mg/kg once a week; control 1503±189 mm^3
Protocol: MiaPaCa-2 cells (2.0×10^6) in a 100 μL suspension of RPMI1640 was injected subcutaneously into dorsal flank of 6-week NOD/SCID mice. Tumor size was monitored twice a week through caliper measurement using the following equation: V=d^2×D/2, where d represents width and D represents length of the tumor. In study 1, mice were randomly grouped (n=5 per group) when average tumor size reached 65 mm^3. Daily treatment was given at five days on two days off cycles. QD325 was given at 5 mg/kg in 100 μL vehicle (5% DMSO, 60% Propylene glycol, 35% Saline) by intraperitoneal injection. […] Unpaired t test was performed for data analysis and p<0.05 was considered significant. […] Procedures for study 2 with gemcitabine treatment are detailed in supplemental information.
On necropsy, tumors, hearts, kidneys, livers, lungs, spleens and pancreases were collected, fixed in 10% neutral buffered formalin, embedded in paraffin, and sectioned. Sections ([…]) were stained with hematoxylin and eosin to facilitate histologic examination. For Ki67 expression level, immunohistochemistry staining was performed on sections with Ki67 antibody. Embedding, sectioning and staining of samples were performed by ULAM pathology core for animal research at the University of Michigan. Representative images were taken on Olympus IX83 microscope with 20× magnification.

MiaPaCa-2 cells [1] = assay: MTT cytotoxicity assay, MiaPaCa-2; assay type: cell-based; details: MTT assay; for IC50: Homo sapiens, Mean ± SD, three independent experiments; for cytotoxicity in presence of NAC: NAC 5 mM (FIG. 3C)
Protocol: as §1, §2

MiaPaCa-2 cells [2] = assay: ROS detection assay (H2DCFDA probe); assay type: cell-based; details: for ROS induction after NAC pretreatment: NAC 5 mM for 30 min pretreatment (FIG. 3B); for ROS induction compared with lead compound QD232: MiaPaCa-2, 24 h treatment, 10 μM (FIG. 1C)
Protocol: To quantify ROS induction by redox modulators, a high throughput ROS assay in 384-well plates using H2DCFDA as the ROS detection probe was developed (FIG. 1A).
Cells were detached by 0.05% trypsin-EDTA, neutralized, centrifuged (1200 rpm, 5 min) and resuspended in cell culture media. Suspension were then treated with 20 μM cell permeable H2DCFDA for 30 min at 37° C. Cells were then centrifuged (1200 rpm, 5 min) and washed with cell culture media to remove excess probe. After washing, cells were placed in black-wall 384-well plate at 20,000 cells/well, incubated for 30 min and treated by compounds at designated conditions. Fluorescent signal were then read at 493 nm/523 nm on BioTek H1 plate reader for ROS detection.

[3] = system: mtDNA content in MiaPaCa-2 cells; assay: Measurement of mtDNA content by qPCR; assay type: cell-based; details: MiaPaCa-2, 6 h; 12S rRNA vs genomic 18S rRNA (FIG. 11B)
Protocol: To assess mtDNA content, genomic DNA was isolated with QIAamp® DNA mini kit (Qiagen, Germantown, Md.) from MiaPaCa-2 cells. The mtDNA content was evaluated by co-amplifying a DNA fragment encoding mitochondrial 12S rRNA (forward primer: 5′-[…]-3′; reverse primer: 5′-TGCGCTTACTTTGTAG CCTTCAT-3′) and a DNA fragment encoding the nuclear 18S rRNA (forward primer: 5′-CCCTGCC CTTTGTACACACC-3′; reverse primer: 5′-GATCCGAGGGCCTCACTA-3′). (Vadrot et al., 2012) Real-time qPCR was performed on Viia7 cycler (Applied Biosystems). Amplifications were monitored and analyzed by measuring the intercalation of the fluorescent dye from Fast SYBR® Green Master Mix (Applied Biosystems). Relative mtDNA contents were calculated using 18S rRNA as gene reference.

MiaPaCa-2 cells [4] = assay: Bru-seq analysis for nascent RNA synthesis; assay type: cell-based; details: Bru-seq
From the text: A bromouridine labeled RNA sequencing (Bru-seq) technique was used to better characterize molecular mechanisms of these novel agents. Bru-seq is able to capture real-time synthesis of the nascent RNA, so as to provide information on global gene transcription without interference by RNA stability or biased gene selection (Paulsen et al., 2014, Paulsen et al., 2013). […] Profiling of all genes with >1.5-fold change in expression upon treatment of QD232 or QD325 identified NRF2-mediated oxidative stress response and unfolded protein response (UPR) as key pathways implicated in drug action (FIG. 8A).
Bru-seq analysis was performed as previously reported (Paulsen et al., 2014). Briefly, 4×10^6 MiaPaCa-2 cells were placed in 10 cm dishes on Day 1. On Day 2, cells were treated with DMSO, QD232 or QD325 for 4 h. Bromouridine was added into the media to label newly synthesized nascent RNA in the last 30 min of treatment to a final concentration of 2 mM. Cells were then collected in TRIZOL and total RNA was isolated. Bromouridine containing RNA population was further isolated and sent for sequencing. Sequencing reads were mapped to the HG19 reference genome. Pre-ranked gene lists were generated for each treatment through ranking genes by fold changes in gene synthesis levels compared with control, and analyzed with GSEA (Broad Institute, MA) (Subramanian et al., 2005, Mootha et al., 2003)

[5] = BXPC-3, 72 h, Table 1, 72 h, Mean ± SD
[6] = metastatic pancreatic cancer, gemcitabine group vs FOLFIRINOX group (Conroy et al., 2011)
[7] = PANC-1, 72 h, Table 1, 72 h, Mean ± SD
[8] = MIA PaCa-2, 72 h, Table 1, 72 h
[9] = BXPC-3, Table 2, Mean ± SD, read-out: IC 50 BxPC-3
[10] = PANC-1, Table 2, Mean ± SD, read-out: IC 50 Panc-1
[11] = MIA PaCa-2, Table 2, read-out: IC 50 MiaPaCa-2

| Molecule | IC50 (BxPC-3 cells; [5]) [nM] | IC50 (Panc-1 cells; [7]) [nM] | IC50 (MiaPaCa-2 cells [1]; [8]) [nM] | IC50 (BxPC-3 cells; [9]) [nM] | melting point [°C] | IC50 (Panc-1 cells; [10]) [nM] | IC50 (MiaPaCa-2 cells [1]; [11]) [nM] | also measured |
| --- | --- | --- | --- | --- | --- | --- | --- | --- |
| Nc1ccn([C@@H]2O[C@H](CO)[C@@H](O)C2(F)F)c(=O)n1 [Gemcitabine, 2′-deoxy-2′, 2′-difluorocytidine monohydrochloride (b-isomer), reference compound] | 50 ± 20 | 200 ± 100 | 110 ± 70 |  |  |  |  | median overall survival (pancreatic cancer; [6]): 6.8 months; median overall survival (pancreatic cancer; pancreatic cancer patients, addition of nab-paclitaxel to gemcitabine (Von Hoff et al., 2013)): 6.7 months; average tumor size at the end of the 48-day treatment period (MiaPaCa-2 xenograft): 387±74 mm^3 |
| OO [H2O2, reference compound] |  |  |  |  |  |  |  | ROS induction after NAC pretreatment (MiaPaCa-2 cells [2]; MiaPaCa-2): blocked; cytotoxicity in presence of NAC (MiaPaCa-2 cells [1]; 72 h): decreased cytotoxicity; mtDNA content 6 hours after treatment [3]: small but significant decrease in mtDNA content |
| COc1cc(NC2=CC(=O)c3ncncc3C2=O)cc(OC)c1OC [QD326, 6-((3,4,5-trimethoxyphenyl)amino)quinazoline-5,8-dione] | 1600 ± 300 | 800 ± 100 | 1500 ± 100 | 1600 ± 300 | 161 to 162 | 800 ± 100 | 1500 ± 100 | ROS induction compared with lead compound QD232 (MiaPaCa-2 cells [2]): significantly higher ROS induction than the lead compound QD232; accumulation of ROS (MiaPaCa-2 cells [2]; MiaPaCa-2, 10, 3.3 or 1.1 μM (FIG. 3A)): time- and dose-dependent accumulation of ROS; ROS accumulation at 10 and 3.3 μM (MiaPaCa-2 cells [2]; MiaPaCa-2, 10 and 3.3 μM): rapid and high ROS accumulation; ROS induction after NAC pretreatment (MiaPaCa-2 cells [2]; MiaPaCa-2): inhibited; cytotoxicity in presence of NAC (MiaPaCa-2 cells [1]; 72 h): decreased cytotoxicity |
| CCc1ccc(-c2ccc(NC3=CC(=O)c4ncncc4C3=O)cc2)cc1 [QD335, 6-((4′-ethyl-[1,1′-biphenyl]-4-yl)amino)quinazoline-5,8-dione] | 3100 ± 700 | 1200 ± 100 | 2000 ± 100 | 3100 ± 700 | 232 | 1200 ± 100 | 2000 ± 100 | ROS induction compared with lead compound QD232 (MiaPaCa-2 cells [2]): significantly higher ROS induction than the lead compound QD232 |
| Cc1ccc(-c2ccc(NC3=CC(=O)c4ncncc4C3=O)cc2F)cc1 [QD338, 6-((2-fluoro-4′-methyl-[1,1′-biphenyl]-4-yl)amino)quinazoline-5,8-dione] | 5000 ± 700 | 4800 ± 100 | 4600 ± 1100 | 5000 ± 700 | 282 to 283 | 4800 ± 100 | 4600 ± 1100 |  |
| Nc1ccc(C(=O)NCCC[P+](c2ccccc2)(c2ccccc2)c2ccccc2)cc1.[Br-] [QD339, (3-(4-aminobenzamido)propyl) triphenylphosphonium bromide] |  | > 30000 |  | > 30000 | 203 to 205 | > 30000 | > 30000 |  |
| COc1cccc(NC2=CC(=O)c3ncncc3C2=O)c1 [QD353, 6-((3-methoxyphenyl)amino)quinazoline-5,8-dione] | 1800 ± 100 | 600 ± 100 | 1800 ± 300 | 1800 ± 100 | 142 | 600 ± 100 | 1800 ± 300 |  |
| COc1ccc(NC2=CC(=O)c3ncncc3C2=O)cc1 [QD354, 6-((4-methoxyphenyl)amino)quinazoline-5,8-dione] | 1700 ± 200 | 800 ± 200 | 1900 ± 200 | 1700 ± 200 | 238 | 800 ± 200 | 1900 ± 200 |  |
| O=C1C(NCc2ccc(F)cc2)=CC(=O)c2ncncc21 [QD356, 6-((4-fluorobenzyl)amino)quinazoline-5,8-dione] | 1400 ± 200 | 1000 ± 100 | 1700 ± 200 | 1400 ± 200 | 203 | 1000 ± 100 | 1700 ± 200 |  |
| Nc1cccc(C(=O)NCCC[P+](c2ccccc2)(c2ccccc2)c2ccccc2)c1.[Br-] [QD358, (3-(3-aminobenzamido)propyl)triphenylphosphonium bromide] |  | > 30000 |  | > 30000 | 223 | > 30000 | > 30000 |  |
| CC[C@@]1(O)C(=O)OCc2c1cc1n(c2=O)Cc2cc3ccccc3nc2-1 [camptothecin, reference compound] |  |  |  |  |  |  |  | transcription of mtDNA from mitochondrial promoters HSP2 and LSP on D-loop (MiaPaCa-2 cells [4]): no such effect was observed |
| FOLFIRINOX |  |  |  |  |  |  |  | median overall survival (pancreatic cancer; [6]): 11.1 months |
